GI50 and TGI data for 8 compounds are collected here from PubChem BioAssay (NCI).

Structures are written as SMILES.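 Values below derive from 48-hour exposures of cells grown in 96-well plates, with endpoints linearly interpolated between the two concentrations bracketing the appropriate inhibition level. GI50 = concentration required for 50% inhibition of growth. At the TGI there is no net growth.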

Test systems include IGROV1 ovarian; NCI/ADR-RES ovarian; SR leukemia; PC-3 prostate; MOLT-4 leukemia; SF-295 CNS; TK-10 renal; M14 melanoma; OVCAR-5 ovarian; OVCAR-4 ovarian.
What all share (assay): inhibition of tumour cell growth, NCI panel, 48 h

For the compound `O=C(c1ccco1)c1c(C(F)(F)F)n([O-])c2cc(F)c(F)cc2[n+]1=O`, the GI50 in the experiment with IGROV1 ovarian is 1.07 µM; with NCI/ADR-RES ovarian, 0.0648 µM; in the experiment on SR leukemia it was 0.0237 µM; in the experiment with PC-3 prostate it was 0.147 µM; with MOLT-4 leukemia, 0.0867 µM; in the experiment with SF-295 CNS, 0.737 µM. Moreover, the GI50 in the experiment on TK-10 renal is 0.204 µM; with M14 melanoma, 0.225 µM; in the experiment with OVCAR-5 ovarian, 0.67 µM. Moreover, the TGI in the experiment on IGROV1 ovarian came out at 3.31 µM; in the experiment on NCI/ADR-RES ovarian it was 0.179 µM; with SR leukemia it was 0.39 µM; with PC-3 prostate it was 0.435 µM; in the experiment on MOLT-4 leukemia, 0.411 µM; in the experiment with SF-295 CNS it was 2.17 µM. The figures for the TGI in the experiment with TK-10 renal, in the experiment on M14 melanoma and in the experiment on OVCAR-5 ovarian were 1.02 µM, 0.528 µM and 2.38 µM, respectively.
`Cc1ccc(Cl)cc1-n1c(C)nc2c(cnn2-c2ccnc3c(C(F)(F)F)cccc23)c1=O`: the GI50 in the experiment with IGROV1 ovarian, in the experiment on NCI/ADR-RES ovarian, in the experiment with PC-3 prostate, in the experiment on MOLT-4 leukemia, in the experiment with SF-295 CNS and in the experiment on TK-10 renal was over 100 µM each time. Besides, the GI50 with OVCAR-5 ovarian and in the experiment on OVCAR-4 ovarian was over 100 µM in each case. Further, the TGI in the experiment with IGROV1 ovarian, in the experiment with NCI/ADR-RES ovarian, with PC-3 prostate, with MOLT-4 leukemia, in the experiment on SF-295 CNS and with TK-10 renal was over 100 µM in each case. The TGI with OVCAR-5 ovarian and in the experiment on OVCAR-4 ovarian was over 100 µM throughout.
For `CSC1=Nc2c(c(C)c(-c3ccccc3)n2COC(CO)CO)C2=NC(=O)CN12`, the GI50 with IGROV1 ovarian was 0.421 µM; in the experiment with NCI/ADR-RES ovarian it was over 100 µM; with SR leukemia it was over 100 µM; in the experiment with PC-3 prostate, over 100 µM; in the experiment with MOLT-4 leukemia it was over 100 µM; in the experiment with SF-295 CNS, over 100 µM. Besides, the GI50 in the experiment with TK-10 renal, with OVCAR-5 ovarian and with OVCAR-4 ovarian was over 100 µM throughout. The TGI with IGROV1 ovarian is 42.8 µM; in the experiment on NCI/ADR-RES ovarian, over 100 µM; in the experiment on SR leukemia, over 100 µM; in the experiment with PC-3 prostate, over 100 µM; in the experiment with MOLT-4 leukemia, over 100 µM; in the experiment with SF-295 CNS, over 100 µM. The TGI in the experiment on TK-10 renal, with OVCAR-5 ovarian and with OVCAR-4 ovarian was over 100 µM throughout.
On to `N#CC1C(N)=NNC12Nc1ccccc1S2` (stereo unspecified), for which the GI50 in the experiment on IGROV1 ovarian is 3.22 µM; in the experiment on NCI/ADR-RES ovarian, 17.7 µM; in the experiment on SR leukemia it was 8.81 µM; in the experiment on PC-3 prostate, 14.1 µM; in the experiment on SF-295 CNS, 17.2 µM; with TK-10 renal, 41.5 µM. The results for the GI50 in the experiment on M14 melanoma and in the experiment with OVCAR-5 ovarian were 15.3 µM and 31.5 µM, respectively. For the same compound, the TGI with IGROV1 ovarian is 20.6 µM; with NCI/ADR-RES ovarian it was 54.1 µM; in the experiment on SR leukemia, 29.9 µM; in the experiment on PC-3 prostate it was over 100 µM; with SF-295 CNS, 64.2 µM; in the experiment with TK-10 renal, over 100 µM. Further, the TGI stood at 40.5 µM in the experiment on M14 melanoma and 76.5 µM in the experiment on OVCAR-5 ovarian.
With `C=CC[N+]1(CC)CCN=C1CCCCCCCCCCCCCCCCC` (stereo unspecified), the GI50 in the experiment on IGROV1 ovarian was 0.237 µM; in the experiment on PC-3 prostate it was 0.237 µM; with MOLT-4 leukemia it was 1.07 µM; in the experiment on SF-295 CNS, 0.249 µM; in the experiment on TK-10 renal it was 1.1 µM; in the experiment with M14 melanoma, 0.35 µM. In addition, the GI50 in the experiment on OVCAR-5 ovarian is 0.472 µM. Moreover, the TGI is 0.475 µM in the experiment on IGROV1 ovarian; 0.702 µM in the experiment on PC-3 prostate; 3.51 µM in the experiment on MOLT-4 leukemia; 0.936 µM in the experiment on SF-295 CNS; 2.44 µM in the experiment with TK-10 renal; 1.28 µM with M14 melanoma. The TGI in the experiment with OVCAR-5 ovarian turned out to be 1.64 µM.
Take `C=CCN(CC=C)C(=O)[C@H](CC)[C@@H]1CC[C@@H](C)[C@@H]([C@H](C)[C@@H](O)[C@@H](C)C(=O)[C@H](CC)C2O[C@]3(C=C[C@@H](O)[C@]4(CC[C@@](C)([C@H]5CC[C@](O)(CC)[C@H](C)O5)O4)O3)[C@H](C)C[C@@H]2C)O1` (stereo partly specified): the GI50 in the experiment with IGROV1 ovarian was 2.41 µM; in the experiment on NCI/ADR-RES ovarian, 2.7 µM; with SR leukemia it was 2.41 µM; in the experiment on PC-3 prostate, 2.31 µM; in the experiment with MOLT-4 leukemia, 2.33 µM; in the experiment with SF-295 CNS, 1.87 µM. Further, the GI50 with TK-10 renal was 3.65 µM; in the experiment with OVCAR-5 ovarian it was 2.25 µM; with OVCAR-4 ovarian it was 2.63 µM. Further, the TGI in the experiment with IGROV1 ovarian is 8.53 µM; in the experiment on NCI/ADR-RES ovarian, 9.82 µM; in the experiment on SR leukemia it was 7.1 µM; in the experiment on PC-3 prostate, 12.4 µM; in the experiment with MOLT-4 leukemia, 6.01 µM; in the experiment with SF-295 CNS, 5.23 µM. Further, the TGI with TK-10 renal was over 100 µM; in the experiment on OVCAR-5 ovarian it was 7.26 µM; in the experiment with OVCAR-4 ovarian, 10.1 µM.
On to `Cn1c(C(=O)c2cccc3ccccc23)nc2ccccc21`, for which the GI50 with IGROV1 ovarian, in the experiment with NCI/ADR-RES ovarian, in the experiment on SR leukemia, in the experiment on PC-3 prostate, in the experiment with MOLT-4 leukemia and in the experiment with SF-295 CNS was over 100 µM in each case. Moreover, the GI50 in the experiment on TK-10 renal is over 100 µM; in the experiment on OVCAR-5 ovarian it was over 100 µM; in the experiment on OVCAR-4 ovarian, 35.1 µM. Moreover, the TGI in the experiment with IGROV1 ovarian, with NCI/ADR-RES ovarian, with SR leukemia, in the experiment on PC-3 prostate, in the experiment with MOLT-4 leukemia and in the experiment on SF-295 CNS was over 100 µM each time. In addition, the TGI in the experiment with TK-10 renal, in the experiment on OVCAR-5 ovarian and with OVCAR-4 ovarian was over 100 µM in each case.
As for `C=CC(=O)N[C@@H](/C=C/C(=O)OCC)Cc1ccc(-c2cc(Cl)cc(Cl)c2)cc1`, the GI50 is 12.7 µM with IGROV1 ovarian; 11.9 µM in the experiment with NCI/ADR-RES ovarian; 5.63 µM in the experiment on SR leukemia; 7.14 µM in the experiment on MOLT-4 leukemia; 13.5 µM in the experiment with SF-295 CNS; 21.9 µM with TK-10 renal. The GI50 in the experiment with M14 melanoma is 17 µM; in the experiment on OVCAR-5 ovarian, 21.6 µM; in the experiment with OVCAR-4 ovarian it was 5.23 µM. The TGI in the experiment on IGROV1 ovarian is over 100 µM; in the experiment with NCI/ADR-RES ovarian it was 73.3 µM; with SR leukemia, 44.8 µM; with MOLT-4 leukemia, over 100 µM; in the experiment on SF-295 CNS it was 83.5 µM; with TK-10 renal, 97.7 µM. For the same compound, the TGI is 80.6 µM with M14 melanoma, over 100 µM in the experiment on OVCAR-5 ovarian and 74.4 µM with OVCAR-4 ovarian.
